What all share (experiment): Microplate antibacterial assay (optical density at 540 nm)
Format in all cases: cell-based

The test system of assay [1] is Proteus vulgaris ACM 4730. The conditions noted are these: 37° C., 22 h; for MIC0: highest concentration with no inhibition of growth; for MIC100: lowest concentration giving 100% inhibition. How it is done:
(§1) Bacterial strains and growth conditions: Test organisms used in the assay were Staphylococcus aureus strain 6571 (NCTC—National Collection of Type Cultures, Health Protection Agency Centre for Infection, London, UK), Streptococcus mutans ACM 969 and Proteus vulgaris ACM 4730, were supplied by the Australian Collection of Microorganisms (ACM), University of Queensland. The test organisms were grown for 24 h in Tryptone Soya Yeast Extract Broth (TSYEB) (Oxoid CM 129B, Basingstoke, UK), 30 g/L; yeast extract (Oxoid CM19), 6 g/L. The inoculum was quantified by measuring the optical density (absorbance) at 540 nm and adjusted to 0.5 absorbance with TSYEB.
(§2) Preparation and dilution of bacterial strains: An inoculum was prepared by serially diluting (1:1) the overnight culture of the test organisms in TSYEB broth 22 times. The dilutions from 11-22 were used on the 96 well microlitre plate. After the dilutions were made the lowest dilution was plated on Plate Count Agar (Oxoid CM0463) for all the test organisms to confirm the bacterial count.
(§3) Preparation of Polyphenol Powder from Molasses: the Polyphenol Powder from Molasses (0.1 g) was dissolved in 10 ml of TSYEB. This solution was diluted in TSYEB starting at a concentration of 1% (w/v) and diluted to 0.0005% (w/v).
(§4) Preparation of Antibiotic Solutions: the Antibiotics Penicillin G and Oxytetracyclin hydrochloride from Sigma-Aldrich (St. Louis, Mo.) were used in this study. 0.01 g each of Penicillin G and Oxytetracyclin were dissolved in 20 ml of TSYEB.
(§5) The antibiotic solutions of Penicillin G and Oxytetracyclin were diluted in TSYEB (1:1) starting at a concentration of 0.05% (w/v) and diluted to 2.44×10^−5% (w/v).
(§6) Microplate assay procedure: Flat bottom 96 well sterile microtiter plates with lid to prevent cross contamination (Sarstedt, Nümbrecht, Germany) were used for the study. Each 96 well microtiter plate supported one row of wells containing the medium alone (sterility and negative control). Three rows from the first row of wells contained 1:1 dilutions of test organisms (bacterial controls equivalent to 10^5 cfu/ml in the left most well to 10^2 cfu/ml in the right most well) and the polyphenol solution from molasses highest to the lowest concentration (1% to 0.0005 w/v). Each of the combinations of polyphenol solution and bacterial cells were done in triplicate measurements. The next three rows of wells contained the same number of bacterial dilutions but the polyphenol solution was from the lowest to the highest concentration (0.0005% to 1% w/v). Each of the combinations of polyphenol solution and bacterial cells were done in triplicate measurements. The remaining row contained the same number of bacterial dilutions with growth media and polyphenol solution and was called the positive control. Replicates (n=6) of the positive control with no polyphenol solution was run on a separate plate for test organisms. Each 300 μl well contained 50 μl of inoculum, 150 μL of polyphenol solution. Each negative or sterility control well contained 200 μl of TSYEB broth. Each positive control well contained 50 μl of inoculum, 150 μl of TSYEB broth.
(§7) Penicillin G and Oxytetracyclin hydrochloride were used as reference standards to determine the sensitivity of test organisms and to compare the antimicrobial activity of the polyphenol solution with that of the antibiotics.
(§8) Optical density (OD) was determined in a spectrophotometer Sunrise-Basic Tecan (Grödig, Austria) at 540 nm. OD was determined prior to incubation and represents the spectrophotometric reading at time zero (T0). Plates were placed in an incubator at 37° C. and incubated for 22 h. Streptococcus mutans was incubated at 37° C. for 22 and 44 h. The solutions in the plates were mixed using a multichannel pipette to prevent clumping prior to reading the OD in the spectrophotometer after 22 h (T22).
(§9) Analysis of results: The calculations for Percent Inhibition were based on the study by Casey et al. 2004; Patton et al. 2006. […]

In assay [2] the test system is Staphylococcus aureus strain 6571. To be noted: 37° C., 22 h; for MIC100: lowest concentration giving 100% inhibition. How it is done:
as §1, §2, §3, §4, §5, §6, §7, §8, §9

For assay [3], the system named is Streptococcus mutans ACM 969. To be noted: lowest concentration giving 100% inhibition, 37° C., growth extended to 44 h. The method, then: as §1, §2, §3, §4, §5, §6, §7, §8, §9
Where [4] appears, read: listed as oxytetracyclin, hydrochloride.

`CN(C)[C@@H]1C(O)=C(C(N)=O)C(=O)[C@@]2(O)C(O)=C3C(=O)c4c(O)cccc4[C@@](C)(O)[C@H]3[C@H](O)[C@@H]12.Cl` [Oxytetracylin, Oxytetracyclin hydrochloride]: the MIC0 in assay [1] is reported as 2.44 × 10^−5 % w/v. Moreover, the MIC100 in assay [1] is 7.88 × 10^−4 % w/v; in assay [2] (hydrochloride), <2.44 × 10^−5 % w/v; in assay [2] (setting [4]), 2.44×10^−5 % w/v; in assay [3] (hydrochloride) it was <2.44 × 10^−5 % w/v; in assay [3] (setting [4]) it was 2.44×10^−5 % w/v.
On to `CC1(C)S[C@@H]2[C@H](NC(=O)Cc3ccccc3)C(=O)N2[C@H]1C(=O)O` [Penicillin G], for which the MIC0 in assay [1] is given as 4.88 × 10^−5 % w/v; in assay [2] (highest concentration with no inhibition of growth), <2.44 × 10^−5 % w/v. The MIC100 in assay [1] is on record as 7.81 × 10^−4 % w/v; in assay [2], 9.77 × 10^−5 % w/v; in assay [3], <2.44 × 10^−5 % w/v.

The values are drawn from patent US20120141390A1, “Natural Preservatives and Antimicrobial Agents” (priority 2007, published 2012).
